Data set [1] has as its system rhinovirus B14. Put plainly: Antiviral activity against Human rhinovirus 14 infected in H1-HeLa cells assessed as reduction in viral infection measured after 2 days by XTT dye reduction method. The format is functional, organism-based. Conditions: Rhinovirus B, 48 h.
In data set [2] the test system is rhinovirus B14. In words: Antiviral activity against Human rhinovirus 14 infected in H1-HeLa cells assessed as reduction in viral infection measured after 5 days by XTT dye reduction method. The format is functional, organism-based. Conditions: Rhinovirus B, 120 h. (In general: Formazan colour is commonly taken as a measure of viable cells.)
A short description of data set [3]: Inhibition of MEK (unknown origin) in the presence of [gamma33P]ATP by scintillation counting method. More on the design: species or system Homo sapiens.
A short description of data set [4]: Oral bioavailability in hamster. In kind it is ADME, organism-based, Mesocricetus auratus. Conditions: in vivo.
In a further data set the target is T1, Neutrophil elastase (Homo sapiens, UniProt P08246).
T1 sequence (P08246 whole entry): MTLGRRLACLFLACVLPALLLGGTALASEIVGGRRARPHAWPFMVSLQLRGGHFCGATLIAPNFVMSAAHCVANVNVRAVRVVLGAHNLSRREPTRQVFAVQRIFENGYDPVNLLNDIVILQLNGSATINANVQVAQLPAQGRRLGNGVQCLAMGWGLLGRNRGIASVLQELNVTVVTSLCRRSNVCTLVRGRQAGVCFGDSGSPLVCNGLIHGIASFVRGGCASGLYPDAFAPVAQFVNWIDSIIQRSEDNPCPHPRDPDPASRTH
In words: Inhibition of human neutrophil elastase using methoxysuccinyl-Ala-Ala-Pro-Val-pnitroanilide as substrate by spectrophotometric analysis.

As for `CCOC(=O)/C=C/[C@H](CCC(N)=O)NC(=O)[C@H](Cc1ccccc1)NC(=O)[C@H](CC(C)C)NC(=O)OCc1ccccc1`, the EC50 with rhinovirus B14 [1] stood at 540 nM.
For `CCOC(=O)/C=C/[C@H](C[C@@H]1CCNC1=O)NC(=O)[C@@H](CC(=O)[C@@H](NC(=O)c1cc(C)on1)C(C)C)Cc1ccc(F)cc1`, the EC50 in the data set on rhinovirus B14 [2] was found to be 13 nM.
As for `CC(C)(C)c1nc2c3ccc(F)cc3c3c(=O)[nH]ccc3c2[nH]1`, the half-inhibitory concentration (IC50) in data set [3] was 160 nM.
Compound `CC(C)C(NC(=O)Cn1c(-c2ccc(F)cc2)ncc(N)c1=O)C(=O)C(F)(F)F` (stereo not given) showed a bioavailability in data set [4] of 77%.
`CC(C)C(NC(=O)[C@@H]1CCCN1C(=O)[C@@H](NC(=O)c1ccc(C(=O)NS(=O)(=O)c2ccc(Cl)cc2)cc1)C(C)C)C(N)=O` (stereo not given in full) had a Ki at Neutrophil elastase of 0.5 nM.

One may read the EC50 as the concentration giving half of the maximal effect. Usually IC50 stands for the concentration needed to halve the response being measured. One may read the bioavailability as the share of a dose that reaches the circulation, judged against a reference dose that is usually intravenous. A high value points to good availability. What is called Ki is a dissociation constant, usually derived from enzyme kinetics or from competition with a known ligand. A low value points to tighter binding.

The values are drawn from ChEMBL document CHEMBL5149971, “Pyridones in drug discovery: Recent advances” (Bioorg Med Chem Lett, 2021).
